According to US8354436B2 (4SC Discovery GmbH, priority 2011, dated 2013):
Where two headings read alike, the source gives them in different places. Each block holds one compound with its values, some of them ahead of it.

Experiments:
Assay type in all cases: cell-based
[1] = system: PBMC from healthy human donors; assay: T cell proliferation assay (PHA-stimulated human PBMC, BrdU ELISA); conditions: 48 hours
In short: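 Proliferation was quantified by BrdU ELISA 48 hours after starting culture of 1×10⁵ human PBMC per well with test compound and 2 μg/ml phytohaemagglutinin. Cells came from healthy donors via Ficoll separation and were kept in RPMI1640 with 10% dialysed heat-inactivated FCS.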

[2] = system: IL-17AA; assay: IL-17AA production by PHA-stimulated human PBMC (human homodimer IL-17A ELISA); conditions: 48 hours
Description: (§1) Analysis of Proliferation of and Cytokine Production by Human PBMC Stimulated with PHA
(§2) Peripheral blood mononuclear cells (PBMC) from healthy human donors were purified using Accuspin™ System-Histopaque-1077 (Sigma) according to the protocol recommended by the manufacturer. Purified PBMC were then washed twice with phosphate-buffered saline (PBS) and resuspended in RPMI1640 culture medium supplemented with 10% dialyzed heat inactivated fetal calf serum, 1.5 mM L-glutamine, 100 U penicillin/ml, and […] (all from PAN Biotech, Aidenbach, Germany). For stimulation, PBMC were seeded at 1×10^5 cells/well, activated with 2 μg/ml phytohaemagglutinin (PHA, Sigma) and incubated with the test compounds for 48 hours. IL-17A, IL-17F and INF-γ were then determined in the culture supernatant using a Luminex BioPlex system, following the manufacturer's instructions (BioRad, Munich, Germany). For screening, compounds were used at 10, 1, 0.1 and 0.01 μM. To determine the IC50, compounds were titrated semilogarithmically.
(§3) Cytokines were determined in the aforementioned culture supernatant using the following methods: IL-17AA/AF was measured using the Luminex BioPlex system (BioRad, Munich, Germany); IL-17AA using the human homodimer IL-17A ELISA Ready Set Go Kit from eBioscience (Frankfurt, Germany); IL-17FF using the human IL-17F ELI-Pair from Hölzel DiagnosticaGmBH (Köln, Germany); and IFN-γ using the OptEIA human IFN-g ELISA from BD Bioscience (Heidelberg, Germany), all following the manufacturer's instructions.

[3] = system: IL-17FF; assay: IL-17FF production by PHA-stimulated human PBMC (human IL-17F ELI-Pair); conditions: 48 hours
In short: (§4)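 Healthy-donor PBMC (1×10^5 cells/well) were activated with 2 μg/ml PHA and cultured with test compounds for 48 hours; cytokines were then quantified in supernatants by the respective immunoassay. Screening used 10, 1, 0.1 and 0.01 μM; IC50 came from semilogarithmic compound titration.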

[4] = system: IFN-γ; assay: IFN-γ production by PHA-stimulated human PBMC (OptEIA human IFN-g ELISA); conditions: 48 hours
In short: as §4

[5] = system: IL-17AA/AF; assay: IL-17AA/AF production by PHA-stimulated human PBMC (Luminex BioPlex assay); conditions: 48 hours, column A, values marked with *, read-out: IC50 (IL-17AA), values marked with * determined by Luminex assay on IL17AA/AF
Description: as §1, §2, §3

[6] = PHA-stimulated human PBMC, column D, read-out: IC50 (Tcell proliferation)
[7] = PHA-stimulated human PBMC, column A, values without *, read-out: IC50 (IL-17AA)
[8] = PHA-stimulated human PBMC, column B, read-out: IC50 (IL-17FF)
[9] = PHA-stimulated human PBMC, column C, read-out: IC50 (IFNγ)
[10] = human PBMC, 2 μg/ml PHA, read-out: D: IC50 (Tcell proliferation)
[11] = human PBMC, 2 μg/ml PHA, read-out: A: IC50 (IL-17AA)
[12] = human PBMC, 2 μg/ml PHA, read-out: B: IC50 (IL-17FF)
[13] = human PBMC, 2 μg/ml PHA, read-out: C: IC50 (IFNγ)

IC50 [2, 11]: < 0.01 µM | IC50 [3, 12]: < 0.01 µM | IC50 [4, 13]: < 0.01 µM
Compound: Fc1cccc(Cl)c1-c1noc(-c2cnn(-c3cccc(Cl)c3)c2C(F)(F)F)c1-c1nccs1 [Example 5, 3-(2-chloro-6-fluorophenyl)-5-(1-(3-chlorophenyl)-5-(trifluoromethyl)-1H-pyrazol-4-yl)-4-(thiazol-2-yl)isoxazole]
IC50 [1, 10]: < 0.01 µM

IC50 [2, 7]: < 0.01 µM | IC50 [3, 8]: < 0.01 µM | IC50 [4, 9]: < 0.01 µM
Compound: COC(=O)c1c(-c2c(F)cccc2Cl)noc1-c1cnn(-c2cccc(Cl)c2)c1C(F)(F)F [Example I-11, methyl 3-(2-chloro-6-fluorophenyl)-5-(1-(3-chlorophenyl)-5-(trifluoromethyl)-1H-pyrazol-4-yl)isoxazole-4-carboxylate]
IC50 [1, 6]: < 0.01 µM

IC50 [2, 11]: 1 to 10 µM | IC50 [3, 12]: 0.1 to 1 µM | IC50 [4, 13]: 1 to 10 µM
Compound: Fc1cccc(-n2ncc(-c3onc(-c4c(F)cccc4Cl)c3-c3ccoc3)c2C(F)(F)F)c1 [Example 13, 3-(2-chloro-6-fluorophenyl)-5-(1-(3-fluorophenyl)-5-(trifluoromethyl)-1H-pyrazol-4-yl)-4-(furan-3-yl)isoxazole]
IC50 [1, 10]: 1 to 10 µM

IC50 [2, 11]: 0.1 to 1 µM | IC50 [3, 12]: 0.01 to 0.1 µM | IC50 [4, 13]: 0.01 to 0.1 µM
Compound: COC(=O)c1csc(-c2c(-c3c(F)cccc3Cl)noc2-c2cnn(-c3cccc(F)c3)c2C(F)(F)F)n1 [Example B-2, methyl 2-(3-(2-chloro-6-fluorophenyl)-5-(1-(3-fluorophenyl)-5-(trifluoromethyl)-1H-pyrazol-4-yl)isoxazol-4-yl)thiazole-4-carboxylate]
IC50 [1, 10]: 0.1 to 1 µM

IC50 [5]: 0.01 to 0.1 µM | IC50 [3, 8]: < 0.01 µM | IC50 [4, 9]: < 0.01 µM
Compound: CSC(=O)c1c(-c2c(F)cccc2Cl)noc1-c1cnn(-c2cccc(Cl)c2)c1C(F)(F)F [Example I-126, S-methyl 3-(2-chloro-6-fluorophenyl)-5-(1-(3-chlorophenyl)-5-(trifluoromethyl)-1H-pyrazol-4-yl)isoxazole-4-carbothioate]
IC50 [1, 6]: < 0.01 µM

IC50 [2, 7]: 0.1 to 1 µM | IC50 [3, 8]: 0.01 to 0.1 µM | IC50 [4, 9]: 0.1 to 1 µM
Compound: CNC(=O)c1c(-c2c(F)cccc2Cl)noc1-c1cnn(-c2cccc(Cl)c2)c1C(F)(F)F [Example I-32, 3-(2-chloro-6-fluorophenyl)-5-(1-(3-chlorophenyl)-5-(trifluoromethyl)-1H-pyrazol-4-yl)-N-methylisoxazole-4-carboxamide]
IC50 [1, 6]: 0.01 to 0.1 µM

More lines, now with the values behind:

Compound: CNC(=O)c1c(-c2c(F)cccc2Cl)noc1-c1cnn(-c2ccccc2F)c1C(F)(F)F [Example I-19, 3-(2-chloro-6-fluorophenyl)-5-(1-(2-fluorophenyl)-5-(trifluoromethyl)-1H-pyrazol-4-yl)-N-methylisoxazole-4-carboxamide]
IC50 [1, 6]: 1 to 10 µM | IC50 [2, 7]: 1 to 10 µM | IC50 [3, 8]: 1 to 10 µM | IC50 [4, 9]: 1 to 10 µM

Compound: Fc1ccccc1-n1ncc(-c2onc(-c3c(F)cccc3Cl)c2-c2ccoc2)c1C(F)(F)F [Example B-9, 3-(2-chloro-6-fluorophenyl)-5-(1-(2-fluorophenyl)-5-(trifluoromethyl)-1H-pyrazol-4-yl)-4-(furan-3-yl)isoxazole]
IC50 [1, 10]: 0.1 to 1 µM | IC50 [2, 11]: 0.1 to 1 µM | IC50 [3, 12]: 0.01 to 0.1 µM | IC50 [4, 13]: 0.1 to 1 µM

Compound: CCOC(=O)c1c(-c2c(F)cccc2Cl)noc1-c1cnn(-c2cccc(NC(C)=O)c2)c1C(F)(F)F [IB-70, ethyl 5-(1-(3-acetamidophenyl)-5-(trifluoromethyl)-1H-pyrazol-4-yl)-3-(2-chloro-6-fluorophenyl)isoxazole-4-carboxylate]
IC50 [1, 6]: 0.01 to 0.1 µM | IC50 [2, 7]: 0.01 to 0.1 µM | IC50 [3, 8]: 0.01 to 0.1 µM | IC50 [4, 9]: 0.01 to 0.1 µM

Compound: Cc1nnc(-c2c(-c3c(F)cccc3Cl)noc2-c2cnn(-c3ccccc3F)c2C(F)(F)F)o1 [Example 11, 2-(3-(2-chloro-6-fluorophenyl)-5-(1-(2-fluorophenyl)-5-(trifluoromethyl)-1H-pyrazol-4-yl)isoxazol-4-yl)-5-methyl-1,3,4-oxadiazole]
IC50 [1, 10]: 0.1 to 1 µM | IC50 [2, 11]: 1 to 10 µM | IC50 [3, 12]: 0.1 to 1 µM | IC50 [4, 13]: 0.01 to 0.1 µM

Compound: CSC(=O)c1c(-c2c(F)cccc2Cl)noc1-c1cnn(-c2cccc(F)c2)c1C(F)(F)F [Example I-128, S-methyl 3-(2-chloro-6-fluorophenyl)-5-(1-(3-fluorophenyl)-5-(trifluoromethyl)-1H-pyrazol-4-yl)isoxazole-4-carbothioate]
IC50 [1, 6]: < 0.01 µM | IC50 [5]: < 0.01 µM | IC50 [3, 8]: < 0.01 µM | IC50 [4, 9]: < 0.01 µM

Compound: CON(C)C(=O)c1c(-c2c(F)cccc2Cl)noc1-c1cnn(-c2cccc(Cl)c2)c1C(F)(F)F [Example I-63, 3-(2-chloro-6-fluorophenyl)-5-(1-(3-chlorophenyl)-5-(trifluoromethyl)-1H-pyrazol-4-yl)-N-methoxy-N-methylisoxazole-4-carboxamide]
IC50 [1, 6]: 0.1 to 1 µM | IC50 [2, 7]: 0.1 to 1 µM | IC50 [3, 8]: 0.01 to 0.1 µM | IC50 [4, 9]: 0.1 to 1 µM

Compound: CNC(=O)c1c(-c2c(F)cccc2Cl)noc1-c1cnn(-c2cccc(F)c2)c1C(F)(F)F [Example I-62, 3-(2-chloro-6-fluorophenyl)-5-(1-(3-fluorophenyl)-5-(trifluoromethyl)-1H-pyrazol-4-yl)-N-methylisoxazole-4-carboxamide]
IC50 [1, 6]: 0.01 to 0.1 µM | IC50 [5]: 0.1 to 1 µM | IC50 [3, 8]: 0.01 to 0.1 µM | IC50 [4, 9]: 0.01 to 0.1 µM

Compound: O=C(NC1CCCCC1)c1c(-c2c(F)cccc2Cl)noc1-c1cnn(-c2ccccc2F)c1C(F)(F)F [Example I-18, 3-(2-chloro-6-fluorophenyl)-N-cyclohexyl-5-(1-(2-fluorophenyl)-5-(trifluoromethyl)-1H-pyrazol-4-yl)isoxazole-4-carboxamide]
IC50 [1, 6]: 1 to 10 µM | IC50 [2, 7]: 1 to 10 µM | IC50 [3, 8]: 0.1 to 1 µM | IC50 [4, 9]: 0.1 to 1 µM

Compound: COC(=O)c1c(-c2c(F)cccc2Cl)noc1-c1cnn(-c2cccc(C#N)c2)c1C(F)(F)F [Example I-12, methyl 3-(2-chloro-6-fluorophenyl)-5-(1-(3-cyanophenyl)-5-(trifluoromethyl)-1H-pyrazol-4-yl)isoxazole-4-carboxylate]
IC50 [1, 6]: 0.01 to 0.1 µM | IC50 [2, 7]: 0.1 to 1 µM | IC50 [3, 8]: 0.01 to 0.1 µM | IC50 [4, 9]: 0.01 to 0.1 µM

Compound: COC(=O)c1c(-c2c(F)cccc2Cl)noc1-c1cnn(-c2ccccc2)c1C(F)(F)F [Example I-48, methyl 3-(2-chloro-6-fluorophenyl)-5-(1-phenyl-5-(trifluomethyl)1H-pyrazol-4-yl)isoxazole-4-carboxylate]
IC50 [1, 6]: 0.01 to 0.1 µM | IC50 [2, 7]: 0.1 to 1 µM | IC50 [3, 8]: 0.01 to 0.1 µM | IC50 [4, 9]: 0.01 to 0.1 µM

Compound: COC(=O)c1c(-c2c(F)cccc2Cl)noc1-c1cnn(-c2cccc(F)c2)c1C(F)(F)F [Example I-5, methyl 3-(2-chloro-6-fluorophenyl)-5-(1-(3-fluorophenyl)-5-(trifluoromethyl)-1H-pyrazol-4-yl)isoxazole-4-carboxylate]
IC50 [1, 6]: < 0.01 µM | IC50 [5]: < 0.01 µM | IC50 [3, 8]: < 0.01 µM | IC50 [4, 9]: < 0.01 µM

Compound: Cc1nnc(-c2c(-c3c(F)cccc3Cl)noc2-c2cnn(-c3ccccc3F)c2C(F)(F)F)s1 [Example 12, 3-(2-chloro-6-fluorophenyl)-5-(1-(2-fluorophenyl)-5-(trifluoromethyl)-1H-pyrazol-4-yl)-4-(5-methyl-1,3,4-thiadiazol-2-yl)isoxazole]
IC50 [1, 10]: 0.1 to 1 µM | IC50 [2, 11]: 0.1 to 1 µM | IC50 [3, 12]: 0.01 to 0.1 µM | IC50 [4, 13]: 0.01 to 0.1 µM

Compound: CNC(=O)c1c(-c2c(F)cccc2Cl)noc1-c1cnn(-c2ccc(F)cc2F)c1C(F)(F)F [Example I-57, 3-(2-chloro-6-fluorophenyl)-5-(1-(2,4-difluorophenyl)-5-(trifluoromethyl)-1H-pyrazol-4-yl)-N-methylisoxazole-4-carboxamide]
IC50 [1, 6]: 1 to 10 µM | IC50 [2, 7]: 1 to 10 µM | IC50 [3, 8]: 1 to 10 µM | IC50 [4, 9]: 1 to 10 µM
